# Assay results published in patent US10690657B2, “Epithelial tissue model” (Nederlandse Organisatie voor …, priority 2012, dated 2020).
# How the values were obtained:
# [1] = system: porcine jejunal tissue; test: Transport (apical to basolateral) across porcine jejunal tissue, Papp; conditions: animal of 12 kg body weight in comparison to an animal of 17 or 20 kg (FIG. 10)
# Text: (§1) After anesthesia of the animal and resection of intestinal tissue, the tissue was directly added to ice-cold carbonated (5% CO2 and 95% O2) KRB buffer, pH 7.4, further referred to as KRB buffer. • 2. Intestinal tissue was transported to the test site in ice-cold KRB buffer • 3. At the test site, the intestinal tissue was cut open, rinsed with ice-cold KRB buffer when needed, placed on a petridish, submerged in ice-cold KRB buffer and muscle layers were stripped of. • 4. Intestinal segments with a diameter of 20 mm were punched, added to ice-cold KRB buffer, and kept on ice. • 5. After collecting all the segments needed for the incubation, the system was assembled (including to a total of 24 segments per system) and placed on ice. […] Subsequently, samples were taken from the apical and basolateral compartments for further analysis either using liquid scintillation counting (LSC), UV-Absorbance, Fluorescence, High Pressure Liquid Chromatography (HPLC), Liquid chromatography-Mass Spectrometry (LCMS), Liquid chromatography-Tandem Mass Spectrometry (LC-MSMS), Enzyme-Linked Immunosorbent Assay (ELISA), or Radio-Immuno Assay (RIA). • 11. […]
# (§2) The apparent permeability value (Papp) is calculated using the following equation: Papp=(dQ/dt)/(A*C0), where dQ/dt refers to the permeability rate (mol/s), A is the surface area filter insert (cm2) and C0 is the initial concentration (mol/L). […]
# [2] = system: porcine jejunal tissue
# Text: as §1, §2
# [3] = system: porcine ileal tissue; test: Translocation across porcine ileal tissue; type: in vitro ADME; conditions: between 0 and 60 minutes (FIG. 11)
# Protocol: Translocation of the bacterial endotoxin lipopoly-saccharide (LPS) across the porcine ileal tissue during incubation time.
compound,measurement,setting,value
"Cn1c(N)nc2ncc(-c3ccccc3)cc21 [[14C]-PhIP, 2-amino-1-methyl-6-phenylimidazo[4,5-b]pyridine]",Transport across porcine jejunal tissue from animals with a different age,[1],higher transport
Cn1c(=O)c2c(ncn2C)n(C)c1=O [caffeine],Apparent permeability (Papp) over time,[2],constant Papp value over time
lipopolysaccharide [LPS],Lag time of transport across porcine ileal tissue,[3],clear lag time of transport
